Measurements: patent publication US9884818B2, “Sulphamoylpyrrolamide derivatives and the use thereof as medicaments for the treatment of hepatitis B” (Janssen Sciences Ireland UC, priority 2013, dated 2018)
pEC50: −log10 of the molar value.

Tests used:
HBV [1] = experiment: Anti-HBV activity, HepG2.117 inducibly HBV producing cell line (Tet-off), intracellular HBV DNA by realtime PCR; type: cell-based; details: Hepatitis B virus, HepG2.117, 72 h, HepG2.117 cells, 3 days of treatment, intracellular HBV DNA; read-out: HepG2 117 EC50
[2] = Cytotoxicity in HepG2 cells, Resazurin viability assay; details: human, HepG2 cells, HepG2 4 days CC50 (μM), incubated for 4 days, Resazurin assay
HBV [3] = experiment: Anti-HBV activity, HepG2.2.15 stable transfected cell line, HBV DNA from secreted virions by realtime PCR; type: cell-based; details: HepG2.2.15 cells, 6 days of treatment, HBV DNA from secreted virions, read-out: HepG2 2.15 EC50
[4] = Hepatitis B virus, HepG2.2.15, 144 h

SMILES | pEC50 (HBV [1]) | CC50 at 4 days [2] | pEC50 (HBV [3]; [4]) | pEC50 (HBV [3])
Cn1cc(S(=O)(=O)NC2(C)COC2)c(F)c1C(=O)Nc1cc(F)c(F)c(Cl)c1 [Compound 111, N-(3-Chloro-4,5-difluorophenyl)-3-fluoro-1-methyl-4-[(3-methyloxetan-3-yl)sulfamoyl]-1H-pyrrole-2-carboxamide] | 8.15 | > 25 µM | 8.15 | –
Cc1cccc(F)c1NC(=O)c1c(Cl)c(S(=O)(=O)N[C@H](C)C(F)(F)F)cn1C [Compound 275, 3-chloro-N-(2-fluoro-6-methyl-phenyl)-1-methyl-4-[[(1R)-2,2,2-trifluoro-1-methyl-ethyl]sulfamoyl]pyrrole-2-carboxamide] | 6.15 | > 25 µM | 6.22 | –
Cn1cc(S(=O)(=O)NC(C)(C)C)cc1C(=O)Nc1cc(Cl)c(F)c(Cl)c1 [Compound 76, 4-(tert-Butylsulfamoyl)-N-(3,5-dichloro-4-fluorophenyl)-1-methyl-1H-pyrrole-2-carboxamide] | 6.89 | > 25 µM | 6.74 | –
C[C@@H](NS(=O)(=O)c1cn(C)c(C(=O)Nc2cccc(C#N)c2)c1F)C(F)(F)F [Compound 180, N-(3-Cyanophenyl)-3-fluoro-1-methyl-4-{[(1R)-2,2,2-trifluoro-1-methylethyl]sulfamoyl}-1H-pyrrole-2-carboxamide] | 7.70 | > 25 µM | 8.00 | –
Cn1cc(S(=O)(=O)NC(C)(C)C(F)(F)F)cc1C(=O)Nc1cc(Cl)c(F)c(Cl)c1 [Compound 163, N-(3,5-Dichloro-4-fluorophenyl)-1-methyl-4-[(2,2,2-trifluoro-1,1-dimethylethyl)sulfamoyl]-1H-pyrrole-2-carboxamide] | 6.96 | 14.3 µM | 6.74 | –
C[C@@H](NS(=O)(=O)c1cn(C)c(C(=O)Nc2ccc(F)c(F)c2)c1F)C(F)(F)F [Compound 229, N-(3,4-Difluorophenyl)-3-fluoro-1-methyl-4-{[(1R)-2,2,2-trifluoro-1-methylethyl]sulfamoyl}-1H-pyrrole-2-carboxamide] | 8.40 | > 25 µM | 8.40 | –
Cn1cc(S(=O)(=O)NC2CCC(F)(F)C2)cc1C(=O)Nc1cc(F)c(F)c(Cl)c1 (single isomer, unassigned) [Compound 166a, N-(3-Chloro-4,5-difluorophenyl)-4-[(3,3-difluorocyclopentyl)sulfamoyl]-1-methyl-1H-pyrrole-2-carboxamide] | 7.00 | 17.9 µM | – | 6.85
CCC(C)(NS(=O)(=O)c1cc(C(=O)Nc2ccc(F)c(Cl)c2F)n(C)c1)C(F)(F)F (stereo not drawn) [Compound 257, N-(3-chloro-2,4-difluoro-phenyl)-1-methyl-4-{[1-methyl-1-(trifluoro-methyl)propyl]sulfamoyl}-1H-pyrrole-2-carboxamide] | 7.05 | > 25 µM | 7.10 | –
C[C@@H](NS(=O)(=O)c1cc(C(=O)Nc2cccc(F)c2F)n(C)c1)C(F)(F)F [Compound 203, N-(2,3-Difluorophenyl)-1-methyl-4-{[(1R)-2,2,2-trifluoro-1-methyl-ethyl]sulfamoyl}-1H-pyrrole-2-carboxamide] | 6.33 | > 25 µM | 6.42 | –
Cc1c(S(=O)(=O)NC2(C)COC2)cc(C(=O)Nc2cc(F)c(F)c(Cl)c2)n1C [Compound 136, N-(3-Chloro-4,5-difluorophenyl)-1,5-dimethyl-4-[(3-methyloxetan-3-yl)sulfamoyl]-1H-pyrrole-2-carboxamide] | 7.22 | > 25 µM | 7.22 | –
Cc1c(S(=O)(=O)N[C@H](C)C(F)(F)F)cc(C(=O)Nc2ccc(F)c(F)c2)n1C [Compound 139, N-(3,4-Difluorophenyl)-1,5-dimethyl-4-{[(1R)-2,2,2-trifluoro-1-methylethyl]sulfamoyl}-1H-pyrrole-2-carboxamide] | 7.52 | > 25 µM | 7.30 | –
Cc1c(S(=O)(=O)N[C@H](C)C(F)(F)F)cc(C(=O)Nc2ccc(F)c(Br)c2)n1C [Compound 141, N-(3-Bromo-4-fluorophenyl)-1,5-dimethyl-4-{[(1R)-2,2,2-trifluoro-1-methylethyl]sulfamoyl}-1H-pyrrole-2-carboxamide] | 6.82 | > 25 µM | 7.40 | –
CC(C)NS(=O)(=O)c1cn(C)c(C(=O)Nc2ccc(F)c(Cl)c2F)c1F [Compound 234, N-(3-Chloro-2,4-difluorophenyl)-3-fluoro-1-methyl-4-[(1-methyl-ethyl)sulfamoyl]-1H-pyrrole-2-carboxamide] | 7.52 | > 25 µM | 7.70 | –
Cc1cc(NC(=O)c2cc(S(=O)(=O)NC(C)C)c[nH]2)ccc1F [Compound 1, N-(4-fluoro-3-methyl-phenyl)-4-(isopropylsulfamoyl)-1H-pyrrole-2-carboxamide] | 5.51 | > 25 µM | 6.38 | –
CC(C)NS(=O)(=O)c1cc(C(=O)Nc2ccc(F)c(Cl)c2F)n(C)c1 [Compound 172, N-(3-Chloro-2,4-difluorophenyl)-1-methyl-4-[(1-methylethyl)sulfamoyl]-1H-pyrrole-2-carboxamide] | 7.10 | > 25 µM | 7.00 | –
CC(C)NS(=O)(=O)c1cc(C(=O)Nc2cccc(Cl)c2F)n(C)c1 [Compound 173, N-(3-Chloro-2-fluorophenyl)-1-methyl-4-[(1-methylethyl)sulfamoyl]-1H-pyrrole-2-carboxamide] | 6.49 | > 25 µM | 6.68 | –
Cn1cc(S(=O)(=O)NC(C)(C)C)cc1C(=O)Nc1cc(F)c(F)c(F)c1 [Compound 68, 4-(tert-butylsulfamoyl)-1-methyl-N-(3,4,5-trifluorophenyl)pyrrole-2-carboxamide] | 7.15 | > 25 µM | 7.15 | –
Cc1cc(NC(=O)c2cc(S(=O)(=O)N[C@H]3CCOC3)cn2C)cc(C)c1F [Compound 31, N-(4-fluoro-3,5-dimethyl-phenyl)-1-methyl-4-[[(3S)-tetrahydrofuran-3-yl]-sulfamoyl]pyrrole-2-carboxamide] | 6.41 | > 25 µM | 6.89 | –
Cc1cc(NC(=O)c2cc(S(=O)(=O)NCC3(C)COC3)cn2C)ccc1F [Compound 7, N-(4-fluoro-3-methyl-phenyl)-1-methyl-4-[(3-methyloxetan-3-yl)methylsulfamoyl]pyrrole-2-carboxamide] | 7.00 | > 25 µM | 6.92 | –
Cn1cc(S(=O)(=O)NC2(C(F)(F)F)CCOCC2)cc1C(=O)Nc1ccc(F)c(C#N)c1 [Compound 247, N-(3-cyano-4-fluoro-phenyl)-1-methyl-4-{[4-(trifluoromethyl)tetrahydropyran-4-yl]sulfamoyl}-1H-pyrrole-2-carboxamide] | 7.52 | > 25 µM | 7.52 | –
Cn1cc(S(=O)(=O)NC(C)(C)C)cc1C(=O)Nc1ccc(F)c(C(C)(F)F)c1 [Compound 162, 4-(tert-Butylsulfamoyl)-N-[3-(1,1-difluoroethyl)-4-fluorophenyl]-1-methyl-1H-pyrrole-2-carboxamide] | 6.05 | > 25 µM | < 6.00 | –
CC(C)NS(=O)(=O)c1cn(C)c(C(=O)Nc2ccc(F)c(Br)c2)c1F [Compound 230, N-(3-Bromo-4-fluorophenyl)-3-fluoro-1-methyl-4-[(1-methylethyl)sulfamoyl]-1H-pyrrole-2-carboxamide] | 7.52 | > 25 µM | 8.10 | –
Cn1cc(S(=O)(=O)NC2(C)COC2)c(F)c1C(=O)Nc1ccc(F)c(Br)c1 [Compound 106, N-(3-Bromo-4-fluorophenyl)-3-fluoro-1-methyl-4-[(3-methyloxetan-3-yl)sulfamoyl]-1H-pyrrole-2-carboxamide] | 8.00 | > 25 µM | 8.00 | –
Cn1cc(S(=O)(=O)NC2(C)COC2)cc1C(=O)Nc1cc(F)cc(C(F)(F)F)c1 [Compound 45, N-[3-fluoro-5-(trifluoromethyl)phenyl]-1-methyl-4-[(3-methyloxetan-3-yl)sulfamoyl]pyrrole-2-carboxamide] | 6.47 | > 25 µM | 6.49 | –
Cn1cc(S(=O)(=O)NC2(C)COC2)cc1C(=O)Nc1cc(Cl)c(F)c(Cl)c1 [Compound 75, N-(3,5-Dichloro-4-fluorophenyl)-1-methyl-4-[(3-methyloxetan-3-yl)sulfamoyl]-1H-pyrrole-2-carboxamide] | 6.74 | > 25 µM | 6.74 | –
Cc1cc(NC(=O)c2cc(S(=O)(=O)N[C@H](C)CO)cn2C)cc(F)c1F [Compound 36, N-(3,4-difluoro-5-methyl-phenyl)-4-[[(1R)-2-hydroxy-1-methyl-ethyl]-sulfamoyl]-1-methyl-pyrrole-2-carboxamide] | 7.40 | > 25 µM | 7.10 | –
C[C@@H](NS(=O)(=O)c1cn(C)c(C(=O)Nc2ccc(F)c(Cl)c2F)c1Cl)C(F)(F)F [Compound 218, 3-Chloro-N-(3-chloro-2,4-difluorophenyl)-1-methyl-4-{[(1R)-2,2,2-trifluoro-1-methylethyl]sulfamoyl}-1H-pyrrole-2-carboxamide] | 8.15 | > 25 µM | 8.05 | –
Cn1cc(S(=O)(=O)NC(C)(C)CF)cc1C(=O)Nc1cc(F)c(F)c(Cl)c1 [Compound 207, N-(3-chloro-4,5-difluoro-phenyl)-4-[(2-fluoro-1,1-dimethyl-ethyl)sulfamoyl]-1-methyl-pyrrole-2-carboxamide] | 6.85 | > 25 µM | 7.30 | –
